Experimental findings from patent publication US11524010B2, “Substituted quinazoline sulfonamides as thioredoxin interacting protein (TXNIP) inhibitors” (SOUTHERN RESEARCH INSTITUTE, priority 2017, dated 2022) are described below.

Some results are limits rather than exact numbers.

The nature of series [1]: INS-1 cell viability (Cell Titer-Glo, ATP). The conditions noted are these: rat, INS-1 cells, 72 hrs treatment. It is filed as cell-based, Rat. On the procedure: INS-1 cell viability was determined based on quantification of ATP using Cell Titer-Glo Luminescent Cell Viability Assay kit (Promega #G7572), which indicates the presence of metabolically active cells. Briefly, INS-1 cells were seeded into 96-well plates at a cell density of 4.5×10^4 and 3.5×10^4 cells per well and incubated overnight at 37° C. with 5% CO2. On the following day, cells were treated with compounds for 24 hrs and 72 hrs respectively. Cell Titer-Glo reagent was added to the cells and Luminescence was acquired on Synergy 4 Reader ([…]).
In general terms: ATP-based viability assays read luminescence as a measure of living cells.

For another series, the system named is TXNIP. In words: Inhibition of glucose-induced endogenous TXNIP expression in INS-1 cells (qRT-PCR). It is filed as cell-based, Rat. The following applies: 25 mM glucose; for inhibition at 1.5 µM / inhibition at 12.5 µM: Rattus norvegicus, INS1, 24 h. On the procedure: The Rat INS-1 cell line was obtained from UAB and maintained in RPMI-1640 (Invitrogen #11875) supplemented with 10% fetal bovine serum (FBS), 100 U/ml penicillin and […] streptomycin, 10 mM HEPES, 1 mM Sodium Pyruvate, 50 μM 2-Mercaptoethanol, and 11.1 mM Glucose in a humidified incubator with a 5% C02 atmosphere at 37° C. 4×10^4 cells per well were seeded to 96-well plate and incubated at 37° C. overnight. A subset of the cells were then cultured in medium with 5 mM Glucose for 24 hrs and then treated in medium with 25 mM glucose with or without compounds to be tested for another 24 hrs.
For the primary high throughput screening (HTS) assay, stably transfected, monoclonal INS-1 cells were split using Trypsin (2 ml per T75 flask) and seeded at a density of 10^4/well in a 384-well plate and incubated overnight at low, 5 mM glucose. The next day, the medium was changed to high glucose (25 mM) or high glucose plus the small molecules to be tested and luciferase assays were performed 24 h later. […] For secondary screens, total RNA was extracted from 96-well cultured cells using RNeasy 96 kit (Qiagen #74181) following the manufacturer's protocol using spin technology. Then a one-step qRT-PCR amplification was performed using QuantiFast SYBR Green RT-PCR kit (Qiagen #204154) and was carried out in a 10 μl reaction which consisted of 2 μl RNA, 0.5 μM each of primers (Rat TXNIP 5′ primer: […] (SEQ ID NO:1) and Rat TXNIP 3′ primer: […] (SEQ ID NO:2); Or Rat 18S rRNA 5′ primer: […] (SEQ ID NO:3) and Rat 18S rRNA 3′ primer: […]) (SEQ ID NO:4), 5 μl 2×SYBR Green Master Mix, 0.1 μl 10× QuantiFast RT Mix. The SYBR Green assay was performed using a LightCycler 480 II (Roche Applied Science) with an initial incubation at 50° C. for 10 min for RT followed by denaturation at 95° C. for 5 min. Forty cycles of amplification were performed using a thermal cycling profile of 95° C. for 10s, 60° C. for 30 s. Subsequently, a melting curve was recorded by holding at 95° C. for 60 s, cooling to 60° C. for 60 s, and then heating at 0.11° C./s up to 95° C. The data was collected and analyzed using the LightCycler 480 Software Release 1.5.0 SP3. The relative amount of TXNIP mRNA was normalized to 18 s rRNA level as a housekeeping gene, and the data was analyzed according to the 2^−ΔΔCT method (1). The transformed data was expressed as % inhibition and compound IC50 calculated by a 4-parameter logistic fit of the data using GraphPad Prism 7.
Background: Quantitative PCR measures a nucleic acid by following its amplification.

As to `CS(=O)(=O)NCC1CCCN(c2ncnc3ccc(C#N)cc23)C1` (centres unmarked) [Compound 13, N-((1-(6-cyanoquinazolin-4-yl)piperidin-3-yl)methyl)methanesulfonamide], the CC50 – broadly, the concentration at which the toxic effect on the cells reaches its halfway point – at 72 h in series [1] was 42 µM. In addition, the inhibition (commonly the relative decrease from the control value, in per cent) at 1.5 µM in the series on TXNIP (1.5 μM compound) is 41%. In addition, in the series on TXNIP (12.5 μM compound), the inhibition at 12.5 µM was 1%.
With `CS(=O)(=O)NCC1CCCN(c2nc(N3CCOCC3)nc3ccccc23)C1` (centres unmarked) [Compound 17, N-((1-(2-morpholinoquinazolin-4-yl)piperidin-3-yl)methyl)methanesulfonamide], the CC50 at 72 h in series [1] was > 100 µM. The same molecule showed an inhibition at 1.5 µM in the series on TXNIP (1.5 μM compound) of 0%. In addition, testing at 12.5 µM with TXNIP (12.5 μM compound) gave an inhibition of 15%.
In the same order, the values of `CS(=O)(=O)NCC1CCCN(c2ncnc3cc(F)c(C(F)(F)F)cc23)C1` (centres unmarked) [Compound 30, N-((1-(7-fluoro-6-(trifluoromethyl)quinazolin-4-yl)piperidin-3-yl)methyl)methane-sulfonamide] are > 100 µM, 9% and 33%.
Taken in the same sequence, the figures for `CS(=O)(=O)NCC1CCCN(c2ncnc3cccc(Cl)c23)C1` (centres unmarked) [Compound 6, N-((1-(5-chloroquinazolin-4-yl)piperidin-3-yl)methyl)methanesulfonamide] were > 100 µM, 29% and 43%.
Turning to `CS(=O)(=O)NCC1CCCN(c2ncnc3cc(N4CCOCC4)c(F)cc23)C1` (centres unmarked) [Compound 23, N-((1-(6-fluoro-7-morpholinoquinazolin-4-yl)piperidin-3-yl)methyl)methanesulfonamide], the CC50 at 72 h in series [1] was > 100 µM. This molecule also displayed an inhibition at 1.5 µM in the series on TXNIP (1.5 μM compound) of 0%. In the series with TXNIP (12.5 μM compound), this molecule gave an inhibition at 12.5 µM of 23%.
As to `CS(=O)(=O)NCC1CCCN(c2ncnc3ccc(N4CCOCC4)cc23)C1` (centres unmarked) [Compound 24, N-((1-(6-morpholinoquinazolin-4-yl)piperidin-3-yl)methyl)methanesulfonamide], the CC50 at 72 h in series [1] is > 100 µM. The molecule further displayed an inhibition at 1.5 µM with TXNIP (1.5 μM compound) of 20%. In addition, in the series on TXNIP (12.5 μM compound), testing at 12.5 µM gave an inhibition of 20%.
Consider `CS(=O)(=O)NCC1CCCN(c2ncnc3ccc(-c4ccccn4)cc23)C1` (centres unmarked) [Compound 27, N-((1-(6-(pyridin-2-yl)quinazolin-4-yl)piperidin-3-yl)methyl)methanesulfonamide], for which the cytotoxic concentration (CC50) at 72 h in series [1] is 70 µM. The molecule also had an inhibition at 1.5 µM in the series with TXNIP (1.5 μM compound) of 9%. In the series with TXNIP (12.5 μM compound), this molecule displayed an inhibition at 12.5 µM of 4%.
Taken in the same sequence, the figures for `CS(=O)(=O)NC1CCCN(c2ncnc3ccc(C(F)(F)F)cc23)C1` (centres unmarked) [Compound 38, N-(1-(6-(trifluoromethyl)quinazolin-4-yl)piperidin-3-yl)methanesulfonamide] were > 100 µM, 34% and 60%.
Taken in the same sequence, the figures for `CS(=O)(=O)NCC1CCCN(c2ncnc3ccc(C(=O)O)cc23)C1` (centres unmarked) [Compound 19, 4-(3-(methylsulfonamidomethyl)piperidin-1-yl)quinazoline-6-carboxylic acid] were > 100 µM, 0% and 5%.
`CS(=O)(=O)NCC1CCCN(c2ncnc3cc(C#N)c(F)cc23)C1` (centres unmarked) [Compound 20, N-((1-(7-cyano-6-fluoroquinazolin-4-yl)piperidin-3-yl)methyl)methanesulfonamide]: the half-maximal cytotoxic concentration (CC50) at 72 h in series [1] is > 100 µM. For the same molecule, the inhibition at 1.5 µM with TXNIP (1.5 μM compound) was found to be 19%. Besides, in the series on TXNIP (12.5 μM compound), the inhibition at 12.5 µM was 30%.
On to `CS(=O)(=O)NCC1CCN(c2ncnc3ccc(F)cc23)C1` (centres unmarked) [Compound 51, N-((1-(6-fluoroquinazolin-4-yl)pyrrolidin-3-yl)methyl)methanesulfonamide], for which, in series [1], the CC50 at 72 h was > 100 µM. The same molecule gave an inhibition at 1.5 µM with TXNIP (1.5 μM compound) of 18%. For the same molecule, 12.5 µM produced 20% inhibition with TXNIP (12.5 μM compound).
Consider `O=S(=O)(NCC1CCCN(c2ncnc3ccc(F)cc23)C1)C1CC1` (centres unmarked) [Compound 58, N-((1-(6-fluoroquinazolin-4-yl)piperidin-3-yl)methyl)cyclopropanesulfonamide], for which the CC50 at 72 h in series [1] was 57 µM. Besides, the inhibition at 1.5 µM in the series with TXNIP (1.5 μM compound) turned out to be 15%. Moreover, testing at 12.5 µM in the series on TXNIP (12.5 μM compound) gave an inhibition of 65%.
For the molecule `CC(C)N(CC1CCCN(c2ncnc3ccc(F)cc23)C1)S(=O)(=O)c1ccccc1` (centres unmarked) [Compound 42, N-((1-(6-fluoroquinazolin-4-yl)piperidin-3-yl)methyl)-N-isopropylbenzenesulfonamide], the CC50 at 72 h in series [1] is 4 µM. Further, the inhibition at 1.5 µM in the series with TXNIP (1.5 μM compound) was 32%. 12.5 µM produced 30% inhibition in the series with TXNIP (12.5 μM compound).
Taken in the same sequence, the figures for `CC(C)c1nc(N2CCCC(CNS(C)(=O)=O)C2)c2ccccc2n1` (centres unmarked) [Compound 15, N-((1-(2-isopropylquinazolin-4-yl)piperidin-3-yl)methyl)methanesulfonamide] were 73 µM, 0% and 20%.
As for `Cc1cc2ncnc(N3CCCC(CNS(C)(=O)=O)C3)c2cc1F` (centres unmarked) [Compound 22, N-((1-(6-fluoro-7-methylquinazolin-4-yl)piperidin-3-yl)methyl)methanesulfonamide], the CC50 at 72 h in series [1] is > 100 µM. The molecule further returned an inhibition at 1.5 µM in the series with TXNIP (1.5 μM compound) of 15%. This molecule yielded an inhibition at 12.5 µM with TXNIP (12.5 μM compound) of 34%.
With `CS(=O)(=O)NCC1(F)CCCN(c2ncnc3cc(F)c(C#N)cc23)C1` (centres unmarked) [Compound 50, N-((1-(6-cyano-7-fluoroquinazolin-4-yl)-3-fluoropiperidin-3-yl)methyl)methanesulfonamide], the CC50 at 72 h in series [1] was > 100 µM. In addition, the inhibition at 1.5 µM with TXNIP (1.5 μM compound) turned out to be 2%. In the series with TXNIP (12.5 μM compound), the inhibition at 12.5 µM worked out at 18%.
Taken in the same sequence, the figures for `CS(=O)(=O)NC1CCCN(c2ncnc3cc(F)c(C#N)cc23)C1` (centres unmarked) [Compound 37, N-(1-(6-cyano-7-fluoroquinazolin-4-yl)piperidin-3-yl)methanesulfonamide] were > 100 µM, 0% and 24%.
Consider `CC(NS(C)(=O)=O)C1CCCN(c2ncnc3cc(F)c(F)cc23)C1` (centres unmarked) [Compound 45, N-(1-(1-(6,7-difluoroquinazolin-4-yl)piperidin-3-yl)ethyl)methanesulfonamide], for which the CC50 at 72 h in series [1] was > 100 µM. The molecule also had an inhibition at 1.5 µM in the series on TXNIP (1.5 μM compound) of 22%. Further, at 12.5 µM the inhibition in the series on TXNIP (12.5 μM compound) was 44%.
In the same order, the values of `CS(=O)(=O)NC1CCCN(c2ncnc3cc(F)c(F)cc23)C1` (centres unmarked) [Compound 33, N-(1-(6,7-difluoroquinazolin-4-yl)piperidin-3-yl)methanesulfonamide] are 68 µM, 29% and 68%.
Turning to `CS(=O)(=O)NC1CN(c2ncnc3ccc(F)cc23)C1` [Compound 52], the 50% cytotoxic concentration (CC50) at 72 h in series [1] is > 100 µM. This molecule also registered an inhibition at 1.5 µM with TXNIP (1.5 μM compound) of 4%. In the series with TXNIP (12.5 μM compound), this molecule had an inhibition at 12.5 µM of 5%.
In the same order, the values of `CS(=O)(=O)NC1CCCN(c2ncnc3cc(F)ccc23)C1` (centres unmarked) [Compound 32, N-(1-(7-fluoroquinazolin-4-yl)piperidin-3-yl)methanesulfonamide] are 65 µM, 21% and 62%.
In the same order, the values of `CS(=O)(=O)NCC1CCCN(c2ncnc3cc(O)c(C(F)(F)F)cc23)C1` (centres unmarked) [Compound 63, N-((1-(7-hydroxy-6-(trifluoromethyl)quinazolin-4-yl)piperidin-3-yl)methyl)methanesulfonamide] are > 100 µM, 10% and 5%.
`CS(=O)(=O)NCC1CCCN(c2ncnc3cc(F)c(C#N)cc23)C1.Cl` (centres unmarked) [Compound 29a, N-((1-(6-cyano-7-fluoroquinazolin-4-yl)piperidin-3-yl)methyl)methanesulfonamide hydrochloride]: the “TXNIP % Inhibition at 1.5 μM” value with TXNIP (1.5 μM compound, 24 hrs) is on record as 35%. Besides, in the series with TXNIP (12.5 μM compound, 24 hrs), the “TXNIP % Inhibition at 12.5 μM” value worked out at 55%.
